Viability data for 76 compounds are collected here from publication PMC12040169 (PLOS Biology, 2025).

One may read the viability as a read-out of living cells in per cent, often relative to untreated cells.

Each structure is given as a SMILES string.

The data set can be described thus: in vitro. The note with it: human, hela cells, % viability.
In the case of `CCCSc1ncc(Cl)c(C(=O)Nc2ccc(C(=O)OC)cc2)n1` [CBK268824], the viability at 28.5 h, 10 µM is 102%.

As to `CS(=O)(=O)N(CC(=O)Nc1ccccc1C(=O)N1CCCC1)c1cc(Cl)c(Cl)cc1Cl` [CBK268826], the viability at 28.5 h, 10 µM is 106%. As to `CCN(CC(=O)N1CCN(c2cc(Cl)ccc2C)CC1)S(=O)(=O)c1ccc2ccccc2c1` [CBK268827], the viability at 28.5 h, 10 µM was 92.8%. For `Cc1c(NC(=O)CSc2ccc(Cl)cc2)cccc1-c1nc2ncccc2o1` [CBK268829] the value was 109%; for `Cc1cc(O)c(-c2n[nH]c3c2C(c2ccccc2F)N(Cc2cccnc2)C3=O)cc1C` (stereo not shown) [CBK268831], 89.8%; for `CSc1nsc(SCC(=O)c2cc3ccccc3oc2=O)n1` [CBK268833], 105%. For `Cc1cc(C)cc(N(C(C)C(=O)Nc2ccc(C(F)(F)F)cc2)S(C)(=O)=O)c1` (stereo not shown) [CBK268834] the value was 89.6%. For the compound `O=C(CN1CCN(c2ccccn2)CC1)N1c2ccccc2Sc2ccc(C(F)(F)F)cc21` [CBK268835G], the viability at 28.5 h, 10 µM was determined as 98.8%. With `O=C(CSc1nnc(-c2ccc(Cl)cc2Cl)o1)c1ccc2c(c1)OCCO2` [CBK268839], the viability at 28.5 h, 10 µM was determined as 113%. For `O=S(=O)(N1CCOCC1)N1CCN(CC(O)COc2ccc3cc(Br)ccc3c2)CC1` (stereo not shown) [CBK268840] the value was 103%. On to `O=C(O)CC(NC(=O)c1ccccc1)c1ccco1` (stereo not shown) [CBK268843], for which the viability at 28.5 h, 10 µM was 87.4%. For `Cc1nnc2sc(-c3ccccc3NC(=S)NC(=O)c3cc4ccccc4o3)nn12` [CBK268845], the viability at 28.5 h, 10 µM turned out to be 103%. For `COc1ccc(C2c3c(-c4cc(C)c(C)cc4O)n[nH]c3C(=O)N2Cc2cccnc2)cc1OC` (stereo not shown) [CBK268846], the viability at 28.5 h, 10 µM is 106%. On to `COc1ccccc1-c1noc(CCCC(=O)Nc2cccnc2)n1` [CBK268848], for which the viability at 28.5 h, 10 µM stood at 101%. Regarding `C=CCn1c(S)nnc1CCSCc1ccccc1` [CBK268849], the viability at 28.5 h, 10 µM was found to be 95.1%. As for `CC(O)c1cc2c(cc1NC(=O)c1cnn3c1NC(c1ccco1)CC3C(F)(F)F)OCO2` (stereo not shown) [CBK268850], the figure is 83.3%; as for `O=C(O)CCc1ccc(-c2ccc(F)cc2)n1NC(=O)c1ccco1` [CBK268853], 90.7%. On to `CS(=O)(=O)N1CCN(c2ccccc2NC(=O)COc2ccc(Cl)cc2)CC1` [CBK268854], for which the viability at 28.5 h, 10 µM was 94.7%. `NCCCN(Cc1ccco1)C1CCCC1` [CBK268856]: the viability at 28.5 h, 10 µM amounted to 109%.

As to `O=C(Cc1ccccc1)N1CCN(S(=O)(=O)N2CCOCC2)CC1` [CBK268857], the viability at 28.5 h, 10 µM came to 108%.

On to `O=C(CCCSC1=NC(C(F)(F)F)CC(c2ccco2)N1)Nc1ccc(Cl)c(Cl)c1` (stereo not shown) [CBK268858], for which the viability at 28.5 h, 10 µM came out at 88%. Turning to `O=C(O)Cc1ccc(-n2c(S)nnc2-c2ccncc2)cc1` [CBK268860], the viability at 28.5 h, 10 µM was 94.9%. Turning to `O=c1[nH]c(CSc2nnc(CCCOc3ccc(Cl)cc3Cl)o2)nc2ccccc12` [CBK268861], the viability at 28.5 h, 10 µM was determined as 97.2%.

Turning to `Cn1c(NCc2ccco2)nc2c1c(=O)n(Cc1cccc(Br)c1)c(=O)n2C` [CBK268863], the viability at 28.5 h, 10 µM amounted to 79.8%. For the compound `O=C(NC(=S)Nc1ccc2oc(-c3cncc(Br)c3)nc2c1)c1cc([N+](=O)[O-])ccc1N1CCOCC1` [CBK268864], the viability at 28.5 h, 10 µM worked out at 118%. Consider `Cn1c(=O)oc2cc(S(=O)(=O)N3CCN(C4CCCCC4)CC3)ccc21` [CBK268865], for which the viability at 28.5 h, 10 µM was determined as 107%.

As to `O=C(O)CCC(=O)Nc1ccc(NC(=O)C2CCCCC2)c(Cl)c1` [CBK268867], the viability at 28.5 h, 10 µM came to 89.3%. On to `CC(C)(C)c1ccc(C(=O)NCCNC(=O)c2nonc2N)cc1` [CBK268869], for which the viability at 28.5 h, 10 µM was 89.5%. For `COc1cccc(CNC23CC4CC(CC(C4)C2)C3)c1OCc1ccccc1` [CBK268873C] the value was 92%.

As for `Cn1c(Cc2ccccc2)nnc1SCCC(=O)Nc1ccccc1` [CBK268874], the viability at 28.5 h, 10 µM worked out at 91.3%. In the case of `Cc1c(Cl)c([N+](=O)[O-])nn1CCCC(=O)Nc1cc(Br)ccc1O` [CBK268875], the viability at 28.5 h, 10 µM amounted to 93.1%. As for `COc1ccc(-c2nc3ccccc3s2)cc1NC(=O)c1ccc(OCC(C)C)cc1` [CBK268878], the figure is 94.7%; as for `COc1ccc(OC)c(NC(=O)CNC(=O)c2ccc(C)cc2)c1` [CBK268881], 91.5%. Take `COc1ccc(Cl)cc1NC(=O)CCCn1cnc([N+](=O)[O-])n1` [CBK268882]: the viability at 28.5 h, 10 µM worked out at 83.2%.

In the case of `Cc1nn2cc(-c3n[nH]cc3[N+](=O)[O-])cnc2c1C(=O)O` [CBK268883], the viability at 28.5 h, 10 µM worked out at 98.3%.

On to `COCCCN1C(=O)c2[nH]nc(-c3cc(C)c(C)cc3O)c2C1c1ccc(SC)cc1` (stereo not shown) [CBK268884], for which the viability at 28.5 h, 10 µM was 89%. With `O=C(Nc1ccc(NC(=O)c2cc3ccccc3o2)cc1)c1ccc(-c2ccccc2)cc1` [CBK268887], the viability at 28.5 h, 10 µM was found to be 107%.

Take `Cc1ccc(N2C(=O)C(CC(=O)Nc3cccc(F)c3)N(CCc3ccncc3)C2=O)cc1` (stereo not shown) [CBK268891]: the viability at 28.5 h, 10 µM turned out to be 96.5%. `Cc1cc(/C=C(/C#N)c2ccc(C(=O)O)cc2)c(C)n1-c1ccc(S(N)(=O)=O)cc1` [CBK268896]: the viability at 28.5 h, 10 µM is 116%.

On to `CC(=O)c1cccc(NC(=O)CN(c2cc(Cl)ccc2Cl)S(=O)(=O)c2ccc(C)cc2)c1` [CBK268897], for which the viability at 28.5 h, 10 µM came out at 90.6%.

As for `CCOc1ccc(C(=O)NC(=S)Nc2sc(C)c(C)c2C#N)cc1Cl` [CBK268900], the viability at 28.5 h, 10 µM turned out to be 91.8%.

For the compound `O=C(Nc1ccc(S(=O)(=O)N2CCCCC2)cc1)c1nc(SCc2ccccc2)ncc1Cl` [CBK268901], the viability at 28.5 h, 10 µM stood at 107%.

Turning to `COc1ccc(-c2nnc(SCCC(=O)O)n2C)cc1OC` [CBK268902], the viability at 28.5 h, 10 µM stood at 98.8%.

With `CCOc1ccc(-n2c(SCc3nc(-c4ccccc4C)no3)nnc2-c2ccccc2)cc1` [CBK268910], the viability at 28.5 h, 10 µM stood at 109%. For `CC(=O)c1cccc(NC(=O)CCCn2cc([N+](=O)[O-])cn2)c1` [CBK268911] the value was 82.8%; for `O=C(CSc1nn2cnnc2s1)Nc1ccc(I)cc1` [CBK268913], 88.2%; for `CS(=O)(=O)N(CC(=O)Nc1ccc(C(F)(F)F)cc1)Cc1ccc(Cl)cc1` [CBK268915], 99.7%.

With `N#C/C(=C\c1ccc(OCC(=O)O)cc1)C(N)=S` [CBK268917], the viability at 28.5 h, 10 µM was 102%. Consider `Cc1cccnc1NC(=O)C(C)n1cc([N+](=O)[O-])cn1` (stereo not shown) [CBK268918], for which the viability at 28.5 h, 10 µM was found to be 104%. For the compound `Cc1cc(-c2nc3ncccc3o2)ccc1NC(=S)NC(=O)c1cc2ccccc2o1` [CBK268922], the viability at 28.5 h, 10 µM stood at 83.1%. For `O=C(Nc1cc(Oc2ccc(Cl)cc2)cc([N+](=O)[O-])c1)c1cnn2c(C(F)F)cc(C3CC3)nc12` [CBK268925], the viability at 28.5 h, 10 µM was found to be 105%. In the case of `Cc1ccc(NC(=O)COc2ccc(/C=C\c3onc(C)c3[N+](=O)[O-])cc2)cc1` [CBK268928], the viability at 28.5 h, 10 µM is 88.2%. For `Cc1cc(C)c(NC(=O)CSc2nnc(-c3cccnc3)s2)c([N+](=O)[O-])c1` [CBK268929] the value was 102%; for `CC1CN(S(=O)(=O)c2ccc(NC(=O)c3nc(SCc4ccccc4)ncc3Cl)cc2)CC(C)O1` (stereo not shown) [CBK268930], 89.3%; for `O=S(=O)(N1CCCCC1)N1CCCN(S(=O)(=O)N2CCCCC2)CC1` [CBK268939], 85.4%.

Turning to `Cc1ccc(-c2nc3ccccc3[nH]2)cc1NC(=O)CSc1ccc(Cl)cc1` [CBK268942], the viability at 28.5 h, 10 µM worked out at 98.3%. Take `COC(=O)c1cc(-c2cccnc2)[nH]n1` [CBK268945]: the viability at 28.5 h, 10 µM amounted to 104%. Turning to `CC1CCC(N(CCCN)Cc2ccco2)CC1C` (stereo not shown) [CBK268947], the viability at 28.5 h, 10 µM was 95.6%. For `Cn1c(SCCCN2C(=O)c3cccc4cccc(c34)C2=O)nnc1-c1ccncc1` [CBK268951] the value was 93.1%; for `O=C(Nc1ccc(Cc2ccncc2)cc1)c1ccc(-c2cc3ccccc3oc2=O)cc1` [CBK268952], 121%. Consider `COc1cc(/C=C(/C#N)c2ccc(C(=O)O)cc2)cc(Br)c1OCC(=O)O` [CBK268956], for which the viability at 28.5 h, 10 µM came out at 92.3%. With `Cc1nn2cc(-c3n[nH]cc3[N+](=O)[O-])cnc2c1C(N)=O` [CBK268957], the viability at 28.5 h, 10 µM came out at 87.4%. Turning to `C=CCn1c(SC(C)C(=O)O)nnc1-c1ccc(OC)cc1` (stereo not shown) [CBK268958], the viability at 28.5 h, 10 µM amounted to 91.1%. For `COC(=O)c1c(NC(=O)Cn2ccc([N+](=O)[O-])n2)sc2c1CCCC2` [CBK268960] the value was 116%; for `COC(=O)COc1ccc(C2Nc3c(Cl)ccc(C(=O)O)c3C3C=CCC32)cc1` (stereo not shown) [CBK268961], 99.9%. Consider `COc1ccc(Cl)c(Cn2c(NCc3ccccn3)nc3c2c(=O)n(C)c(=O)n3C)c1` [CBK268965], for which the viability at 28.5 h, 10 µM was determined as 97.6%.

In the case of `Cc1nn(CC(=O)NCc2ccc(C(=O)O)cc2)c(C)c1[N+](=O)[O-]` [CBK268967], the viability at 28.5 h, 10 µM came to 118%. Consider `CCSc1ncc(Cl)c(C(=O)N(Cc2cccc(Br)c2)C2CCS(=O)(=O)C2)n1` (stereo not shown) [CBK268969], for which the viability at 28.5 h, 10 µM turned out to be 90.3%. For the compound `Cn1nnnc1SCC(=O)Nc1cccc2nsnc12` [CBK268973], the viability at 28.5 h, 10 µM amounted to 101%. As for `C=CCNC(=O)CCc1nc(-c2cccc(OC)c2)no1` [CBK268981], the figure is 99.2%; as for `CC(=O)Nc1ccc(S(=O)(=O)N2CCN(S(=O)(=O)N3CCCCCC3)CC2)cc1` [CBK268983], 99.3%; as for `Cc1ccc(Nc2nc(N)nc(CN3CCN(Cc4ccc5c(c4)OCO5)CC3)n2)cc1` [CBK268985], 96.1%.

As to `CN(C)S(=O)(=O)N1CCN(c2ccc([N+](=O)[O-])c(NC3C4CC5CC(C4)CC3C5)c2)CC1` (stereo not shown) [CBK268986], the viability at 28.5 h, 10 µM was found to be 102%. As to `NS(=O)(=O)c1ccc(NC(=O)CSc2cccc3ccccc23)cc1` [CBK268987], the viability at 28.5 h, 10 µM is 93.2%.

Regarding `O=C(O)c1cc(-n2c(S)nnc2-c2ccncc2)ccc1Cl` [CBK268989], the viability at 28.5 h, 10 µM came out at 94.9%.

For `COc1ccc(NS(=O)(=O)c2ccc(NC(=S)NC(=O)C(C)(C)C)cc2)cc1` [CBK268990], the viability at 28.5 h, 10 µM amounted to 109%.
